Results as given in patent US20220313753A1, “BIFIDOBACTERIUM BIFIDUM BACTERIAL STRAIN, THE COMPOSITIONS THEREOF AND RELATED USES” (priority 2019, published 2022).
Where two headings read alike, the source gives them in different places.

What was measured:
bifidobacteria = settings: limit values provided for bifidobacteria (EFSA, 2012); cited from earlier work
[1] = tested on: B. bifidum MIMBb23sg DSM 32708; test: Antibiotic MIC by microdilution analysis (ISO, 2010); type: cell-based, Bifidobacterium bifidum; settings: for MIC: Bifidobacterium bifidum
[2] = DSM32708, microdilution analysis, ISO 2010, read-out: MIC of MIMBb23sg

In the case of `CC1(C)S[C@@H]2[C@H](NC(=O)[C@H](N)c3ccccc3)C(=O)N2[C@H]1C(=O)O` [ampicillin], the EFSA limit values (bifidobacteria) is listed as 2 µg/mL and the MIC [1, 2] is listed as 0.25 µg/mL.

For `O=C(N[C@H](CO)[C@H](O)c1ccc([N+](=O)[O-])cc1)C(Cl)Cl` [chloramphenicol], the EFSA limit values (bifidobacteria) is given as 4 µg/mL and the MIC [1, 2] is given as 2 µg/mL.

Work on `CCC[C@@H]1C[C@@H](C(=O)N[C@@H]([C@H]2O[C@H](SC)[C@H](O)[C@@H](O)[C@H]2O)[C@H](C)Cl)N(C)C1` [clindamycin] yielded an MIC [1, 2] of 0.25 µg/mL.

For `CC[C@H]1OC(=O)[C@H](C)[C@@H](O[C@H]2C[C@@](C)(OC)[C@@H](O)[C@H](C)O2)[C@H](C)[C@@H](O[C@@H]2O[C@H](C)C[C@H](N(C)C)[C@H]2O)[C@](C)(O)C[C@@H](C)C(=O)[C@H](C)[C@@H](O)[C@]1(C)O` [erythromycin], the EFSA limit values (bifidobacteria) is given as 1 µg/mL and the MIC [1, 2] is given as 0.25 µg/mL.

In the case of `NC[C@H]1O[C@H](O[C@H]2[C@H](O)[C@@H](O[C@H]3O[C@H](CO)[C@@H](O)[C@H](N)[C@H]3O)[C@H](N)C[C@@H]2N)[C@H](O)[C@@H](O)[C@@H]1O` [kanamycin], the MIC [1, 2] is reported as 128 µg/mL.

For `[H]/N=C(/N)N[C@H]1[C@H](O)[C@@H](O)[C@H](O[C@@H]2O[C@@H](C)[C@](O)(C=O)[C@H]2O[C@@H]2O[C@@H](CO)[C@H](O)[C@@H](O)[C@@H]2NC)[C@@H](N/C(N)=N\[H])[C@@H]1O` [streptomycin], the EFSA limit values (bifidobacteria) is given as 128 µg/mL and the MIC [1, 2] is given as 128 µg/mL.

In the case of `CN(C)[C@@H]1C(O)=C(C(N)=O)C(=O)[C@@]2(O)C(O)=C3C(=O)c4c(O)cccc4[C@@](C)(O)[C@H]3C[C@@H]12` [tetracycline], the MIC [1, 2] is reported as 1 µg/mL.

For `CN[C@H](CC(C)C)C(=O)N[C@H]1C(=O)N[C@@H](CC(N)=O)C(=O)N[C@H]2C(=O)N[C@H]3C(=O)N[C@H](C(=O)N[C@H](C(=O)O)c4cc(O)cc(O)c4-c4cc3ccc4O)[C@H](O)c3ccc(c(Cl)c3)Oc3cc2cc(c3O[C@@H]2O[C@H](CO)[C@@H](O)[C@H](O)[C@H]2O[C@H]2C[C@](C)(N)[C@H](O)[C@H](C)O2)Oc2ccc(cc2Cl)[C@H]1O` [vancomycin], the EFSA limit values (bifidobacteria) is given as 2 µg/mL and the MIC ([1]; DSM32708, read-out: MIC of MIMBb23sg) is given as 0.5 µg/mL.

In the case of gentamicin, the EFSA limit values (bifidobacteria) is listed as 64 µg/mL and the “MIC of MIMBb23sg” value ([1]; microdilution analysis, ISO 2010) is listed as 32 µg/mL.
